{"source": "patent US20160220710A1", "about": "“COMPOSITIONS AND METHODS FOR DELIVERING PHARMACEUTICAL AGENTS” (THE REGENTS OF THE UNIVERSITY OF MICHIGAN, priority 2015, published 2016)", "key": {"[1]": {"system": "carrageenan-based footpad-edema model", "assay": "Carrageenan footpad edema model, 8-week orally fed mice", "format": "in vivo", "conditions": "8 week oral treatment", "description": "Experiments using the CFZ mice model were performed as published before (Baik et al., 2013, supra; Baik et al., 2012, supra; Keswani, R. K. et al. Mol. Pharm. 12, 2528-2536 (2015)). Mice (4 week old, male C57Bl/6) were purchased from the Jackson Laboratory (Bar Harbor, Me.) and acclimatised for 2 weeks in a specific-pathogen-free animal facility. All animal care was provided by the University of Michigan's Unit for Laboratory Animal Medicine (ULAM), and the experimental protocol was approved by the Committee on Use and Care of Animals. CFZ was dissolved in sesame oil (Roland, China, or Shirakiku, Japan) to achieve a concentration of 3 mg/ml, which was mixed with Powdered Lab Diet 5001 (PMI International, Inc., St. Louis, Mo.) to produce a 0.03% drug to powdered feed mix. A corresponding amount of sesame oil was mixed with chow for vehicle treatment (control).\nMice Carrageenan Footpad Edema Model. Carrageenan (C1867, Sigma-Aldrich®, 2% in PBS, 30 μl) was injected into the right footpad while PBS (30 μl) was injected in the left footpad as a negative control. For preliminary testing of CFZ as an anti-inflammatory agent, 8-week orally fed mice (CFZ and control) were used. For testing of CFZ in soluble and microcrystal form, naïve 4-5 week old mice were injected with carrageenan first followed by injection of CFZ-A (2 mM in DMSO, 30 μl), CLDIs (2 mM equivalent in PBS, 30 μl) or CFZ-HCl (2 mM equivalent in PBS, 30 μl) at 48 h post carrageenan injection. For control experiments, CFZ-A, CLDIs and CFZ-HCl were injected into the right footpads of naïve 4-5 week old mice. DMSO was used as a control for CFZ-A in the left footpad whereas PBS was used as a control for CLDIs and CFZ-HCl. Footpads were measured (length—l, width—w, three thicknesses—t1, t2, t3) at various time points using a digital vernier calliper and changes in the swelling based on volume of the foot was calculated as per above."}, "Akt": {"system": "Akt", "assay": "Western blot of Akt phosphorylated at Ser473", "format": "cell-based, murine", "conditions": "RAW 264.7 cells, 24 h", "description": "The murine macrophage cell line RAW 264.7 was purchased from ATCC (Manassas, Va.) and maintained in DMEM (Life Technologies, Carlsbad, Calif.) supplemented with 10% FBS. Soluble CFZ or isolated CLDIs were added at various concentrations in DMEM with 5% FBS to 6-well plates containing 4×10^5 cells/well and incubated (24 h at 37° C. and 5% CO2). Culture supernatants were harvested at 24 h, centrifuged (1500×g for 5 min), and stored (−20° C.) in frozen aliquots prior to analysis. For experiments involving TLR stimulation, cells were washed twice with pre-warmed DPBS to remove extracellular, non-phagocytosed CLDIs or CFZ, and then the cells were serum-starved for 18 h in DMEM. Supernatants were collected from unstimulated cells and cells stimulated with 200 ng/ml Pam3 or 1 μg/ml LPS in DMEM."}, "[2]": {"system": "carrageenan-induced footpad inflammation", "assay": "Carrageenan foot edema test", "format": "in vivo, mice", "description": "Clofazimine (CFZ, Sigma-Aldrich, C8895) was prepared in sesame oil (Shirakiku, Japan, or Roland, China) and Powdered Lab Diet 5001 (PMI International, Inc., St. Louis, Mo.) and orally administrated to Wild-type (WT) C57BL/6 mice or IL-1RA^−/− (4-5 week old, Jackson Laboratory, Bar Harbor, Me.) for up to 8 weeks ad libitum as previously described (Baik et al., 2013, supra; Baik et al., 2011, supra). Control mice were fed with the same diet without CFZ. The animal protocol was approved by the University of Michigan's Animal Care and Use Committee in accordance with the National Institutes of Health guidelines (UCUCA #PRO0005111).\nFoot inflammation in response to carrageenan injection was conducted in CFZ and control mice as previously described (Otterness I G, et al., Moore P F (1988) Immunochemical Techniques Part L: Chemotaxis and Inflammation (Elsevier) doi:10.1016/0076-6879(88)62086-6). In brief, the volume of each hind paw was measured with a caliper before and after the intraplantar injection of 30 μl 2% carrageenan ([…]) in PBS or equal volume of PBS in the contralateral paw. Paw swelling was measured at 4 and 48 h after injection, after which the animals were euthanized by exsanguination while deeply anesthetized with an intraperitoneal injection of ketamine (100 mg/kg) and xylazine (10 mg/kg), and the skin tissues of the plantar region were harvested for cytokine assay (see below)."}}, "note": "Entries after “also recorded” stand apart in the source; their conditions may differ."}
{"smiles": "CC(C)/N=c1\\cc2n(-c3ccc(Cl)cc3)c3ccccc3nc-2cc1Nc1ccc(Cl)cc1", "note": "[CFZ, 3-(p-chloroanilino)-10-(p-chlorophenyl)-2, 10-dihydro-2-isopropyliminophenazine]", "values": [{"measurement": "decrease of inflammation vs control diet", "setting": "[1]; t=4 h", "result": "~3", "unit": "fold"}, {"measurement": "decrease of inflammation vs control diet", "setting": "[1]; t=24 h", "result": "~14", "unit": "fold"}, {"measurement": "decrease of inflammation vs control diet", "setting": "[1]; t=48 h", "result": "~2", "unit": "fold"}, {"measurement": "phosphorylation of Akt", "setting": "Akt", "result": "minimally affected phosphorylation of Akt"}, {"measurement": "footpad homogenate IL-1RA levels", "setting": "[2]; 2 weeks of CFZ treatment, 48 h", "result": "reduced"}, {"measurement": "paw swelling vs untreated mice", "setting": "[2]; 2 weeks of CFZ treatment, 48 h (legend: 4 and 48 h)", "result": "only a modest reduction in paw swelling; also recorded: only a minor reduction in swelling at 4 and 48 h"}, {"measurement": "reduction in paw swelling vs untreated mice", "setting": "[2]; 8 week CFZ-treated, 4 h post-injection", "result": 57, "unit": "%"}, {"measurement": "plasma IL-1RA levels after carrageenan", "setting": "[2]; 8 week CFZ-treated, 4 h post-injury", "result": "rapidly declined at 4 h post-injury"}, {"measurement": "footpad homogenate IL-1RA levels", "setting": "[2]; 8 week CFZ-treated, 48 h", "result": "increased"}, {"measurement": "footpad homogenate IL-1β and TNFα levels", "setting": "[2]; 8 week CFZ-treated, 48 h", "result": "dramatically reduced"}, {"measurement": "paw swelling vs untreated mice", "setting": "[2]; 8 week CFZ-treated, 48 h post-injection", "result": "strikingly reduced swelling"}, {"measurement": "anti-inflammatory effect (paw swelling)", "setting": "[2]; IL-1RA KO mice, 6 weeks CFZ", "result": "greatly diminished in IL-1RA KO mice"}, {"measurement": "paw swelling", "setting": "[2]; WT mice, 6 weeks CFZ", "result": "reduced swelling compared to untreated and injured mice"}, {"measurement": "footpad IL-1β levels", "setting": "[2]; WT mice, 6 weeks CFZ, injured", "result": "significantly reduced"}, {"measurement": "plasma levels of TNFα and IL-1β", "setting": "[2]; all mice, ELISA detection limit", "result": "< 15", "unit": "pg/mL"}]}
